Our source for the melting point and IC50 values is patent US7091347B2, “Bicyclic pyridine and pyrimidine p38 kinase inhibitors” (Roche Palo Alto LLC, priority 2002, dated 2006).

One data set addresses T1, p38 MAP kinase (UniProt Q16539).
T1 construct: fused on or other part: A His tag is implied by purification on a nickel column
Nature of the data set: Inhibition of p-38 (MAP) kinase in vitro assay (transfer of γ-33P from ATP to Myelin Basic Protein). It is filed as biochemical. The note with it: phosphorylated recombinant p38 MAP kinase, MBP substrate, γ-33P-ATP, 30° C. As to the method:
The p-38 MAP kinase inhibitory activity of compounds of this invention in vitro was determined by measuring the transfer of the y-phosphate from γ-^33P-ATP by p-38 kinase to Myelin Basic Protein (MBP), using the a minor modification of the method described in Ahn, N. G.; et al. J. of Biol. Chem. Vol. 266(7), 4220–4227, (1991)
The phosphorylated form of the recombinant p38 MAP kinase was expressed with SEK-1 and MEKK in E. Coli (see, Khokhlatchev, A. et al. J. of Biol. Chem. Vol. 272(17), 11057–11062, (1997) and then purified by affinity chromatography using a Nickel column.
The phosphorylated p38 MAP kinase was diluted in kinase buffer (20 mM 3-(N-morpholino)propanesulfonic acid, pH 7.2, 25 mM β-glycerol phosphate, 5 mM ethylene glycol-bis(beta-aminoethyl ether)-N,N,N′,N′-tetraacetic acid, 1 mM sodium vanadate, 1 mM dithiothreitol, 40 mM magnesium chloride). Test compound dissolved in DMSO or only DMSO (control) was added and the samples were incubated for 10 min. at 30° C. The kinase reaction was initiated by the addition of a substrate cocktail containing MBP and γ-^33P-ATP. After incubating for an additional 20 min. at 30° C., the reaction was terminated by adding 0.75% phosphoric acid. The phosphorylated MBP was then separated from the residual γ-^33P-ATP using a phosphocellulose membrane (Millipore, Bedfrod, Mass.) and quantitated using a scintillation counter (Packard, Meriden, Conn.).
The p-38 inhibitory activities (expressed as IC50, the concentration causing 50% inhibition of the p-38 enzyme being analyzed) of the compounds listed in Table 1 in the specification are between 0.01 μM and 10 μM.

Counter-ions that a name gives are not always drawn.

Consider `Fc1ccccc1Cc1cc2cnc(NC3CCOCC3)nc2s1` (as salt: hydrochloride) [Compound 25, 2-(tetrahydropyran-4-ylamino)-6-[(2-fluorophenyl)methyl]thieno[2,3-d]pyrimidine], for which the melting point (usually the temperature of the solid-liquid transition) lay within 217 to 219 °C.

For `O=C(c1ccccc1)c1cc2cnc(N[C@H]3CC[C@H](O)CC3)nc2s1` [Compound 1], the melting point is 102.6 to 103.8 °C. Further, the IC50 (in general, the concentration at which inhibition is half-maximal) on p38 MAP kinase turned out to be 104 nM.

In turn, `Cl.O=C(c1ccccc1)c1cc2cnc(NC3CCOCC3)nc2s1` [Compound 3] returned a melting point of 219.5 to 220.5 °C. Also, the IC50 at p38 MAP kinase stood at 221 nM.

Consider `O=C(c1cc2cnc(NC3CCOCC3)nc2s1)c1ccccc1F` [Compound 9, 2-(tetrahydropyran-4-ylamino)-6-(2-fluorobenzoyl)thieno[2,3-d]pyrimidine], for which the melting point was 195.2 to 195.5 °C.

`CS(=O)(=O)N1CCC(Nc2ncc3cc(C(O)c4ccccc4)sc3n2)CC1.Cl` (centres unmarked) [Compound 23] came in with a melting point of 152.2 to 162.1 °C. Also, on p38 MAP kinase, the IC50 amounted to 128 nM.

In the case of `c1ccc(Cc2cc3cnc(NC4CCCC4)nc3o2)cc1` [Compound 30, 2-(cyclopentylamino)-6-benzyl-furano[2,3-d]pyrimidine], the IC50 at p38 MAP kinase came to 744 nM.

As for `Cn1c(Cc2ccccc2)cc2cnc(NC3CCCC3)nc21` [Compound 33, 2-(cyclopentylamino)-6-benzyl-7-methyl-pyrrolo[2,3-d]pyrimidine], the IC50 at p38 MAP kinase turned out to be 135 nM.

On to `Fc1ccc(Sc2cc3cnc(NC4CCOCC4)nc3s2)c(F)c1` [Compound 41, [6-(2,4-Difluorophenylsulfanyl)thieno[2,3-d]pyrimidin-2-yl]-(tetrahydropyran-4-yl)-amine], for which the IC50 at p38 MAP kinase was determined as 226 nM.
